# How the values were obtained:
# Format in all cases: cell-based
# CFTR ΔF508 mutant [1] = molecular target: T1, CFTR ΔF508 mutant (Homo sapiens, UniProt P13569, DEL508-508); test: YFP-halide influx assay for the CFTR-ΔF508 mutation (384 well, CFBE41o- cells, FDSS/μCell); details: forskolin 10.67 μM, fluorescence after 36 seconds, read-out: EC50 measured by YFP-halide influx assay for the CFTR-ΔF508
# T1 construct: expressed in transfected cells; host or cells: CFBE41o- (adenoviral transduction)
# Method in brief: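 CFBE41o- cells were adenovirally transduced with ΔF508 CFTR and the YFP H148Q/I152L reporter. Cells were then held 24 h at 27 °C or treated 24 h at 37 °C with a CFTR modulator. Iodide-induced quench was recorded for 2 min, and EC50 was derived from 1−F/F0 at 36 s against compound concentration.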
# CFTR G551D mutant = molecular target: T2, CFTR G551D mutant (Homo sapiens, UniProt P13569, G551D); test: YFP-halide influx assay for the CFTR-G551D mutation (HEK293 cells); details: HEK293 cells expressing CFTR G551D and YFP reporter; forskolin 10.67 μM; read-out: EC50 measured by YFP-halide influx assay for the CFTR-G551D
# T2 construct: expressed in transfected cells; host or cells: HEK293 (reverse transfection with plasmids)
# Method in brief: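 HEK293 cells reverse-transfected with CFTR G551D and halide-sensitive YFP, expressed 24 h at 37 °C. Iodide-induced fluorescence quench recorded for 7 s after I^− injection; response as 1−F/F0, EC50 from concentration plot.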
# CFTR-S549N = molecular target: T3, CFTR-S549N (Homo sapiens, UniProt P13569, S549N); test: YFP-halide influx assay for the CFTR-S549N; details: CFTR-S549N mutant; read-out: EC50 measured by YFP-halide influx assay for the CFTR-S549N
# T3 construct: expressed in transfected cells
# Description: (§1) The YFP halide influx assay measures the functionality of the cystic fibrosis Transmembrane Conductance regulator (CFTR) channels. The assay is used to evaluate the capacity of compounds to increase the channel opening of existing mutant CFTR channels in the membrane. It makes use of the observation that the yellow fluorescent protein (YFP) variant YFP H148Q, I152L, F47L has its fluorescence substantially quenched by halide ions like Cl^− and I^−. (Galietta et al., 2001)
# (§2) For this purpose, HEK293-cells are seeded in 96 well plates. During seeding, the cells are reverse-transfected with plasmid vectors that direct the expression of the CFTR G551D mutant and of the YFP reporter. Cells are incubated at 37° C., 5% CO2 for 24 hours so as to allow for sufficient expression of the CFTR protein.
# (§3) The I^−-induced quenching of fluorescence is recorded immediately after injection of I^− for 7 seconds. The capacity of a compound to increase the channel opening is directly correlated with the decrease in fluorescence, and is expressed as (1−(fluorescence after 7 seconds (F)/fluorescence before injection (F0))) and an EC50 can be derived from a (1−F/F0) vs compound concentration plot.
# (§4) Similar YHA assays were developed for other channel gating defective or channel conductance defective CFTR mutants to determine effect of compound on channel activity. Examples of mutants are G178R, G1349D, S549N, R117H, R334W. This assay is also used for additional class I CFTR mutants, including G542X, W1282X; class II mutants including N1303K, and for class III mutants including S1251N; or wild-type CFTR.
# CFTR-G1349D = molecular target: T4, CFTR-G1349D (Homo sapiens, UniProt P13569, G1349D); test: YFP-halide influx assay for the CFTR-G1349D; details: CFTR-G1349D mutant; read-out: EC50 measured by YFP-halide influx assay for the CFTR-G1349D
# T4 construct: expressed in transfected cells
# Description: as §1, §2, §3, §4
# CFTR-G178R = molecular target: T5, CFTR-G178R (Homo sapiens, UniProt P13569, G178R); test: YFP-halide influx assay for the CFTR-G178R; details: read-out: EC50 measured by YFP-halide influx assay for the CFTR-G178R
# T5 construct: expressed in transfected cells
# Description: as §1, §2, §3, §4
# CFTR ΔF508 mutant [2] = molecular target: T1, CFTR ΔF508 mutant; test: YFP-halide influx assay for the CFTR-ΔF508 mutation (96 well, CFBE41o- cells); details: compounds of the invention, 96 well, forskolin 10.67 μM, read-out: EC50 measured by YFP-halide influx assay for the CFTR-ΔF508
# Method in brief: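 CFBE41o- cells were adenovirally transduced with CFTR ΔF508 and the halide-sensitive YFP H148Q/I152L. They were then corrected either at 27 °C for 24 h or with a CFTR modulator for 24 h at 37 °C. After iodide injection, YFP quenching over 7 s was expressed as 1−F/F0, and EC50 was derived from the concentration–response plot.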
# CFTR-R117H = molecular target: T6, CFTR-R117H (Homo sapiens, UniProt P13569, R117H); test: YFP-halide influx assay for the CFTR-R117H; details: CFTR-R117H mutant; read-out: EC50 measured by YFP-halide influx assay for the CFTR-R117H
# T6 construct: expressed in transfected cells
# Description: as §1, §2, §3, §4
# T2 sequence (P13569 whole entry G551D): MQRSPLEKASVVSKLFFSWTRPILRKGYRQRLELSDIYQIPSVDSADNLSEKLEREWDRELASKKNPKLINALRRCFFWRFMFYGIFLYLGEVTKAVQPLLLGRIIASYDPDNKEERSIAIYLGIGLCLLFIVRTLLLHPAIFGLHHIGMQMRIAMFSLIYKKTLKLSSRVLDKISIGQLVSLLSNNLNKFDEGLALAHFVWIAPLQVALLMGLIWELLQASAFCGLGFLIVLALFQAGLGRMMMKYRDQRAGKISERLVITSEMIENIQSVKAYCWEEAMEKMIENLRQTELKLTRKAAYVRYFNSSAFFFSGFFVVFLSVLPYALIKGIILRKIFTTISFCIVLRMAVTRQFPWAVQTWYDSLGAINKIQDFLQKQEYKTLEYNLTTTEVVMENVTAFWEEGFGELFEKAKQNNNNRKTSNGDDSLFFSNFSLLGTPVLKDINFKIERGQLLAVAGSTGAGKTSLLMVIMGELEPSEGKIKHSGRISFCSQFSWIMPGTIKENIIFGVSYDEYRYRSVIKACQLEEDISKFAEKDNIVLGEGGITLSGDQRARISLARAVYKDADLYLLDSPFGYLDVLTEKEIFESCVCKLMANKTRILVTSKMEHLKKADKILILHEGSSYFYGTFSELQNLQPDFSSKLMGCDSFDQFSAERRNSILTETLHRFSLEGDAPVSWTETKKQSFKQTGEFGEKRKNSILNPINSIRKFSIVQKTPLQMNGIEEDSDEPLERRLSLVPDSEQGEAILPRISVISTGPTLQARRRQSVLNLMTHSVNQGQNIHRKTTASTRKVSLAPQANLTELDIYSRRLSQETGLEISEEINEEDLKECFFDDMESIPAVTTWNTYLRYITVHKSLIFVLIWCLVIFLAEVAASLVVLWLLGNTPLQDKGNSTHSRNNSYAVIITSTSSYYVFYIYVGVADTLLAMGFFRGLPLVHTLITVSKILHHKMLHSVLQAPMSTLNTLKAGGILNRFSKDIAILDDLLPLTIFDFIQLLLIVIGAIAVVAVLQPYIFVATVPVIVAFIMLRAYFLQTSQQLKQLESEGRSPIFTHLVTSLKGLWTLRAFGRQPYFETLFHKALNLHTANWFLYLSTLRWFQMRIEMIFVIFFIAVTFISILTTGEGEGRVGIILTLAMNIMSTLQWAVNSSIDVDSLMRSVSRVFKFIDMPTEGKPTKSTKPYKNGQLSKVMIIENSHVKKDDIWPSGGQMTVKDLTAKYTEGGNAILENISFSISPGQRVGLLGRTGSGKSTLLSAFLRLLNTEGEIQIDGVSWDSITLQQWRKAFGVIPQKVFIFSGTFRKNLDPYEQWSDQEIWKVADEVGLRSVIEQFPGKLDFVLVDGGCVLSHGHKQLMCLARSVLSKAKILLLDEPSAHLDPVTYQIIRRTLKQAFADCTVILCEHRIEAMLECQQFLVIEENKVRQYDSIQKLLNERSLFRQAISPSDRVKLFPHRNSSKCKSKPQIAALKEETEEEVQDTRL
# T1 sequence (P13569 with tags, fused parts or gaps DEL508-508): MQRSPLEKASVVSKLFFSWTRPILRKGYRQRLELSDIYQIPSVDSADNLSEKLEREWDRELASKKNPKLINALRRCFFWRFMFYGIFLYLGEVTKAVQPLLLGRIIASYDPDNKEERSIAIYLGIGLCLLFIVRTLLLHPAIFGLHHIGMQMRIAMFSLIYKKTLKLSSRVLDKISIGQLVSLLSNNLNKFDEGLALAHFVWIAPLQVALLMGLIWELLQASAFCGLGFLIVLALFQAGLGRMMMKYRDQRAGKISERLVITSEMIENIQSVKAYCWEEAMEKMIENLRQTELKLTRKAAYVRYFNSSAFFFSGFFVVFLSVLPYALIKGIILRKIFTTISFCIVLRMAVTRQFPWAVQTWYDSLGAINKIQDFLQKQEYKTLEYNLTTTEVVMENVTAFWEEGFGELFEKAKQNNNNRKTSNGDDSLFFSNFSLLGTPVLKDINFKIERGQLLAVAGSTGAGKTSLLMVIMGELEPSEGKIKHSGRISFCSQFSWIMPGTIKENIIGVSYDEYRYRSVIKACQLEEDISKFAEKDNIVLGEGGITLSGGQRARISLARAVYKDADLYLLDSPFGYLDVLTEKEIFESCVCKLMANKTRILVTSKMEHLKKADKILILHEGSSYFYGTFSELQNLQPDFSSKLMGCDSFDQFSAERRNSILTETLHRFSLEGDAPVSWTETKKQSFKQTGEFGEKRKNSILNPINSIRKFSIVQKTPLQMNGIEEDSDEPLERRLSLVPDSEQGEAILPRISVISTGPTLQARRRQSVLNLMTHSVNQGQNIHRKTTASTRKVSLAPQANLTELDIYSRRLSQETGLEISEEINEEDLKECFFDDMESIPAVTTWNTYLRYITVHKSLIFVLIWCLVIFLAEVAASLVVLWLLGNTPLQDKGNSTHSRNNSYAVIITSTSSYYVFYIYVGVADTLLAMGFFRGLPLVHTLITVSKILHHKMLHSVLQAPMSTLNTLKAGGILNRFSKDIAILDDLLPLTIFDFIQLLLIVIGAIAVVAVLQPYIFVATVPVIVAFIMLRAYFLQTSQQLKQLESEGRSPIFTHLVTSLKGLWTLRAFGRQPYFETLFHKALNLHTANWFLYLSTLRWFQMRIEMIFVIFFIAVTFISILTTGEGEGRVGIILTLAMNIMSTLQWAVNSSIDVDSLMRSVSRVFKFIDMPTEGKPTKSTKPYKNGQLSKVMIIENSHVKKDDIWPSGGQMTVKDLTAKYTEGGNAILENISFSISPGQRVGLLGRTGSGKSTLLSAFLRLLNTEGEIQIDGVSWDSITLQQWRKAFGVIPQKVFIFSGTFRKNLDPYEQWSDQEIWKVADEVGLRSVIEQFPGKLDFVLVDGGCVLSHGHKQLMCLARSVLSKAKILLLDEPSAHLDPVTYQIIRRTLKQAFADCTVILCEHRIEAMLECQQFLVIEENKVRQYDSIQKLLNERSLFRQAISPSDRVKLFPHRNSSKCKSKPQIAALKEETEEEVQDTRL
# T6 sequence (P13569 whole entry R117H): as the sequence (P13569 whole entry G551D) above, with R117H, D551G counted along it
# T5 sequence (P13569 whole entry G178R): as the sequence (P13569 whole entry G551D) above, with G178R, D551G counted along it
# T4 sequence (P13569 whole entry G1349D): as the sequence (P13569 whole entry G551D) above, with D551G, G1349D counted along it
# T3 sequence (P13569 whole entry S549N): as the sequence (P13569 whole entry G551D) above, with S549N, D551G counted along it
EC50 (CFTR ΔF508 mutant [1]),EC50 (CFTR G551D mutant),EC50 (CFTR-S549N),EC50 (CFTR-G1349D),EC50 (CFTR-G178R),EC50 (CFTR ΔF508 mutant [2]),EC50 (CFTR-R117H),Structure (SMILES)
0.0101 µM,0.27 µM,0.444 µM,0.0474 µM,0.0422 µM,0.01 µM,0.301 µM,"Cc1[nH]nc(C(=O)Nc2sc3c(c2C(N)=O)CC(C)(C)OC3(C)C)c1Cl [Compound 34, N-(3-carbamoyl-5,5,7,7-tetramethyl-5,7-dihydro-4H-thieno[2,3-c]pyran-2-yl)-4-chloro-5-methyl-1H-pyrazole-3-carboxamide]"
0.00272 µM,0.0775 µM,0.208 µM,0.0753 µM,0.0875 µM,0.00756 µM,0.158 µM,"CC1(C)Cc2c(sc(NC(=O)c3cc(C(F)(F)F)[nH]n3)c2C(N)=O)C(C)(C)O1 [Compound 15, N-(3-carbamoyl-5,5,7,7-tetramethyl-5,7-dihydro-4H-thieno[2,3-c]pyran-2-yl)-5-(trifluoromethyl)-1H-pyrazole-3-carboxamide]"
0.0106 µM,0.288 µM,0.105 µM,0.0705 µM,0.0474 µM,,0.0763 µM,"COCc1[nH]nc(C(=O)Nc2sc3c(c2C(N)=O)CC(C)(C)OC3(C)C)c1Cl [Compound 50, N-(3-carbamoyl-5,5,7,7-tetramethyl-4H-thieno[2,3-c]pyran-2-yl)-4-chloro-5-(methoxymethyl)-1H-pyrazole-3-carboxamide]"
0.0201 µM,0.971 µM,3.33 µM,0.464 µM,0.221 µM,,0.78 µM,"CC1(C)Cc2c(sc(NC(=O)c3ccnn3CC(F)(F)F)c2C(N)=O)C(C)(C)O1 [Compound 151, N-(3-carbamoyl-5,5,7,7-tetramethyl-4H-thieno[2,3-c]pyran-2-yl)-2-(2,2,2-trifluoroethyl)pyrazole-3-carboxamide]"
0.0245 µM,0.6 µM,0.108 µM,0.074 µM,0.0583 µM,,0.0389 µM,"COCCOc1cc(C(=O)Nc2sc3c(c2C(N)=O)CC(C)(C)OC3(C)C)n[nH]1 [Compound 55, 5-(2-Methoxy-ethoxy)-1H-pyrazole-3-carboxylic acid (3-carbamoyl-5,5,7,7-tetramethyl-4,7-dihydro-5H-thieno[2,3-c]pyran-2-yl)-amide]"
0.0296 µM,1.14 µM,1.52 µM,0.325 µM,0.368 µM,,1.2 µM,"CC1(C)Cc2c(sc(NC(=O)c3n[nH]cc3C3=CCOCC3)c2C(N)=O)C(C)(C)O1 [Compound 45, N-(3-carbamoyl-5,5,7,7-tetramethyl-4H-thieno[2,3-c]pyran-2-yl)-4-(3,6-dihydro-2H-pyran-4-yl)-1H-pyrazole-3-carboxamide]"
0.00217 µM,0.412 µM,0.0315 µM,0.0244 µM,0.0141 µM,,0.0153 µM,"CC1(C)Cc2c(sc(NC(=O)[C@@H](O)C(C)(C)C)c2C(N)=O)C(C)(C)O1 [Compound 76, 2-[[(2S)-2-hydroxy-3,3-dimethyl-butanoyl]amino]-5,5,7,7-tetramethyl-4H-thieno[2,3-c]pyran-3-carboxamide]"
0.0179 µM,0.368 µM,0.122 µM,0.064 µM,0.0314 µM,,0.147 µM,"CCOCCc1c[nH]nc1C(=O)Nc1sc2c(c1C(N)=O)CC(C)(C)OC2(C)C [Compound 72, N-(3-carbamoyl-5,5,7,7-tetramethyl-4H-thieno[2,3-c]pyran-2-yl)-4-(2-ethoxyethyl)-1H-pyrazole-3-carboxamide]"
0.0187 µM,1 µM,0.599 µM,0.536 µM,0.466 µM,,0.724 µM,"CC1(C)Cc2c(sc(NC(=O)c3ccn(CC(F)(F)F)n3)c2C(N)=O)C(C)(C)O1 [Compound 121, N-(3-carbamoyl-5,5,7,7-tetramethyl-4H-thieno[2,3-c]pyran-2-yl)-1-(2,2,2-trifluoroethyl)pyrazole-3-carboxamide]"
0.00599 µM,,0.69 µM,0.517 µM,0.0968 µM,0.005 µM,0.0643 µM,"CC1(C)Cc2c(sc(NC(=O)C(O)C(C)(C)C)c2C(N)=O)C(C)(C)O1 (centres unmarked) [Compound 38, 2-(2-hydroxy-3,3-dimethylbutanamido)-5,5,7,7-tetramethyl-5,7-dihydro-4H-thieno[2,3-c]pyran-3-carboxamide]"
0.0268 µM,1.36 µM,0.947 µM,0.888 µM,0.347 µM,,1.12 µM,"CC(C)OCCOc1c[nH]nc1C(=O)Nc1sc2c(c1C(N)=O)CC(C)(C)OC2(C)C [Compound 101, N-(3-carbamoyl-5,5,7,7-tetramethyl-4H-thieno[2,3-c]pyran-2-yl)-4-(2-isopropoxyethoxy)-1H-pyrazole-3-carboxamide]"
0.0356 µM,,1.93 µM,1.91 µM,> 3.33 µM,0.032 µM,2.9 µM,"CC1(C)Cc2c(sc(NC(=O)C3(CO)CCC3)c2C(N)=O)C(C)(C)O1 [Compound 40, 2-(1-(hydroxymethyl)cyclobutanecarboxamido)-5,5,7,7-tetramethyl-5,7-dihydro-4H-thieno[2,3-c]pyran-3-carboxamide]"
0.127 µM,7.78 µM,1.45 µM,1.31 µM,2.21 µM,,1.01 µM,"CC1(C)Cc2c(sc(NC(=O)[C@H](O)C(C)(C)C)c2C(N)=O)C(C)(C)O1 [Compound 77, 2-[[(2R)-2-hydroxy-3,3-dimethyl-butanoyl]amino]-5,5,7,7-tetramethyl-4H-thieno[2,3-c]pyran-3-carboxamide]"
0.00054 µM,0.981 µM,0.0218 µM,0.2 µM,0.026 µM,,0.0117 µM,"CC(C)(C)CC(O)C(=O)Nc1sc2c(c1C(N)=O)CC(C)(C)OC2(C)C (centres unmarked) [Compound 106, 2-[(2-hydroxy-4,4-dimethyl-pentanoyl)amino]-5,5,7,7-tetramethyl-4H-thieno[2,3-c]pyran-3-carboxamide]"
0.00262 µM,5.11 µM,0.073 µM,0.0547 µM,0.0415 µM,,0.0267 µM,"CC1(C)Cc2c(sc(NC(=O)[C@@H](O)CC3CC3)c2C(N)=O)C(C)(C)O1 [Compound 98, 2-[[(2S)-3-cyclopropyl-2-hydroxy-propanoyl]amino]-5,5,7,7-tetramethyl-4H-thieno[2,3-c]pyran-3-carboxamide]"
0.0153 µM,,0.508 µM,0.678 µM,0.156 µM,0.0122 µM,0.193 µM,"COCc1cc(C(=O)Nc2sc3c(c2C(N)=O)CC(C)(C)OC3(C)C)n[nH]1 [Compound 42, N-(3-carbamoyl-5,5,7,7-tetramethyl-5,7-dihydro-4H-thieno[2,3-c]pyran-2-yl)-5-(methoxymethyl)-1H-pyrazole-3-carboxamide]"
0.00451 µM,,1.1 µM,1.34 µM,1.36 µM,0.006 µM,0.145 µM,"CC(C)C(O)C(=O)Nc1sc2c(c1C(N)=O)CC(C)(C)OC2(C)C (centres unmarked) [Compound 39, 2-(2-hydroxy-3-methylbutanamido)-5,5,7,7-tetramethyl-5,7-dihydro-4H-thieno[2,3-c]pyran-3-carboxamide]"

# Source: patent US9351955B2, “Compounds and pharmaceutical compositions thereof for the treatment of cystic fibrosis” (Galapagos NV, priority 2013, dated 2016)
